Measurements published in PubChem BioAssay AID248 (DTP/NCI, 2004).
Several values for one entry are separate records, joined by “and”; a condition that tells them apart may be missing. Equal entries are not always repeated. Inconclusive results and toxic doses are left out. Rule as the data show it: active = T/C of 150% or more; inactive = T/C below 125%.

System: L1210 leukemia ip in BDF1 mice, survival T/C
Experiment: NCI In Vivo Anticancer Drug Screen. Data for tumor model L1210 Leukemia (intraperitoneal) in B6D2F1 (BDF1) mice
Details: endpoint: mean survival time, higher = longer survival
Outline: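 Transplanted-tumor mice were given test agent; controls received vehicle only. Survival readings from the two groups were divided (treated over control).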

[1] = dose: 100.0 mg/kg/injection, schedule: Q04DX003 (ip), vehicle: saline with Tween-80
[2] = dose: 200.0 mg/kg/injection, schedule: Q04DX003 (ip), vehicle: saline with Tween-80
[3] = dose: 400.0 mg/kg/injection, schedule: Q04DX003 (ip), vehicle: saline with Tween-80
[4] = dose: 100.0 mg/kg/injection, schedule: Q01DX001 (ip), vehicle: carboxymethylcellulose (CMC)
[5] = dose: 100.0 mg/kg/injection, schedule: Q04DX002 (ip), vehicle: gum acacia
[6] = dose: 200.0 mg/kg/injection, schedule: Q01DX001 (ip), vehicle: carboxymethylcellulose (CMC)
[7] = dose: 400.0 mg/kg/injection, schedule: Q01DX001 (ip), vehicle: carboxymethylcellulose (CMC)
[8] = dose: 50.0 mg/kg/injection, schedule: Q04DX003 (ip), vehicle: Klucel (hydroxypropylcellulose) (HPC)
[9] = dose: 100.0 mg/kg/injection, schedule: Q04DX003 (ip), vehicle: Klucel (hydroxypropylcellulose) (HPC)
[10] = dose: 200.0 mg/kg/injection, schedule: Q04DX003 (ip), vehicle: Klucel (hydroxypropylcellulose) (HPC)
[11] = dose: 100.0 mg/kg/injection, schedule: Q01DX001 (ip), vehicle: Klucel (hydroxypropylcellulose) (HPC)
[12] = dose: 200.0 mg/kg/injection, schedule: Q01DX001 (ip), vehicle: Klucel (hydroxypropylcellulose) (HPC)

Measured: T/C

O=C1CCCC2C(=O)CCCC12 (centres undefined)
inactive: dose: 100.0 mg/kg/injection, schedule: Q## X003 (ip), vehicle: saline 102 % of control | dose: 200.0 mg/kg/injection, schedule: Q## X003 (ip), vehicle: saline 98 % of control | dose: 400.0 mg/kg/injection, schedule: Q## X003 (ip), vehicle: saline 101 % of control

O=C(Nc1ccc(Cl)cc1)Nc1cccc(F)c1
inactive: dose: 100.0 mg/kg/injection, schedule: Q01DX009 (ip), vehicle: Klucel (hydroxypropylcellulose) (HPC) 90 % of control | dose: 200.0 mg/kg/injection, schedule: Q01DX009 (ip), vehicle: Klucel (hydroxypropylcellulose) (HPC) 94 % of control | dose: 400.0 mg/kg/injection, schedule: Q01DX009 (ip), vehicle: Klucel (hydroxypropylcellulose) (HPC) 110 % of control

CC1(Cc2ccccc2)CCC(=O)O1 (centres undefined)
inactive: dose: 100.0 mg/kg/injection, schedule: Q01DX009 (ip), vehicle: saline with Tween-80 98 % of control | [1] 98 % of control | dose: 200.0 mg/kg/injection, schedule: Q01DX009 (ip), vehicle: saline with Tween-80 100 % of control | [2] 96 % of control | dose: 400.0 mg/kg/injection, schedule: Q01DX009 (ip), vehicle: saline with Tween-80 87 % of control | [3] 104 % of control

O=C(/C=C\C=C\c1ccccc1)c1ccc([N+](=O)[O-])cc1
inactive: [4] 92 % of control and 89 % of control | dose: 100.0 mg/kg/injection, schedule: Q01DX009 (ip), vehicle: carboxymethylcellulose (CMC) 100 % of control and 89 % of control | [5] 95 % of control and 99 % of control | dose: 100.0 mg/kg/injection, schedule: Q04DX003 (ip), vehicle: carboxymethylcellulose (CMC) 93 % of control and 86 % of control | [6] 95 % of control and 89 % of control | dose: 200.0 mg/kg/injection, schedule: Q01DX009 (ip), vehicle: carboxymethylcellulose (CMC) 90 % of control | dose: 200.0 mg/kg/injection, schedule: Q04DX002 (ip), vehicle: gum acacia 101 % of control and 89 % of control | dose: 200.0 mg/kg/injection, schedule: Q04DX003 (ip), vehicle: carboxymethylcellulose (CMC) 86 % of control and 90 % of control | [7] 92 % of control and 89 % of control | dose: 400.0 mg/kg/injection, schedule: Q01DX009 (ip), vehicle: carboxymethylcellulose (CMC) 96 % of control and 97 % of control | dose: 400.0 mg/kg/injection, schedule: Q04DX002 (ip), vehicle: gum acacia 92 % of control and 89 % of control | dose: 400.0 mg/kg/injection, schedule: Q04DX003 (ip), vehicle: carboxymethylcellulose (CMC) 90 % of control

O=C(O)c1cccc(F)c1.[Ni]
inactive: dose: 25.0 mg/kg/injection, schedule: Q04DX002 (ip), vehicle: gum acacia 100 % of control | dose: 50.0 mg/kg/injection, schedule: Q04DX002 (ip), vehicle: gum acacia 103 % of control | [5] 117 % of control

c1ccc([P+](c2ccccc2)(c2ccccc2)C2CCC2)cc1
inactive: dose: 9.4 mg/kg/injection, schedule: Q01DX009 (ip), vehicle: saline with Tween-80 121 % of control | dose: 18.8 mg/kg/injection, schedule: Q01DX009 (ip), vehicle: saline with Tween-80 88 % of control

N#CCOC(=O)c1ccc[nH]1
inactive: dose: 10.0 mg/kg/injection, schedule: Q01DX001 (ip), vehicle: acetone 101 % of control | dose: 20.0 mg/kg/injection, schedule: Q01DX001 (ip), vehicle: acetone 100 % of control | dose: 40.0 mg/kg/injection, schedule: Q01DX001 (ip), vehicle: acetone 97 % of control

O=C(CCCc1ccc(N(CCCl)CCCl)cc1)NC1CCCC1
inactive: dose: 4.0 mg/kg/injection, schedule: Q12HX018 (ip), vehicle: other 103 % of control | dose: 6.0 mg/kg/injection, schedule: Q12HX018 (ip), vehicle: other 98 % of control | dose: 8.0 mg/kg/injection, schedule: Q12HX018 (ip), vehicle: other 103 % of control

O=C(C1=Cc2ccccc2OC1)N1CCN(C(=O)C2=Cc3ccccc3OC2)CC1
inactive: [1] 100 % of control | [2] 97 % of control | [3] 95 % of control

O=C(O)c1ccc[cH-]1.O=C(O)c1ccc[cH-]1.[Fe+2]
inactive: dose: 100.0 mg/kg/injection, schedule: Q04DX002 (ip), vehicle: Klucel (hydroxypropylcellulose) (HPC) 110 % of control | dose: 200.0 mg/kg/injection, schedule: Q04DX002 (ip), vehicle: Klucel (hydroxypropylcellulose) (HPC) 100 % of control | dose: 400.0 mg/kg/injection, schedule: Q04DX002 (ip), vehicle: Klucel (hydroxypropylcellulose) (HPC) 103 % of control

CCCCCCCCCCCCCCCCS(=O)(=O)N/N=C/c1ccc(NC(C)=O)cc1
inactive: [4] 98 % of control | [6] 95 % of control | [7] 103 % of control

CN(C(=O)c1ccccc1)N(C)C(=O)c1ccccc1
inactive: dose: 25.0 mg/kg/injection, schedule: Q01DX009 (ip), vehicle: Klucel (hydroxypropylcellulose) (HPC) 106 % of control | dose: 50.0 mg/kg/injection, schedule: Q01DX009 (ip), vehicle: Klucel (hydroxypropylcellulose) (HPC) 95 % of control | [8] 98 % of control | [9] 110 % of control

O=S(=O)(Nc1ccccn1)c1ccc(N=Nc2ccc(O)c3ncccc23)cc1
inactive: dose: 100.0 mg/kg/injection, schedule: Q01DX001 (ip), vehicle: saline 103 % of control | dose: 200.0 mg/kg/injection, schedule: Q01DX001 (ip), vehicle: saline 105 % of control | dose: 400.0 mg/kg/injection, schedule: Q01DX001 (ip), vehicle: saline 103 % of control

CC(C)c1ccc2c(c1)CCC1C(CN=C(N)CSS(=O)(=O)O)CCCC21C (centres undefined)
inactive: dose: 75.0 mg/kg/injection, schedule: Q01DX001 (ip), vehicle: saline with Tween-80 95 % of control | dose: 150.0 mg/kg/injection, schedule: Q01DX001 (ip), vehicle: saline with Tween-80 102 % of control

CC1c2[nH]c3ccccc3c2CC1C(=O)O (centres undefined)
inactive: dose: 100.0 mg/kg/injection, schedule: Q04DX002 (ip), vehicle: saline with Tween-80 97 % of control | dose: 200.0 mg/kg/injection, schedule: Q04DX002 (ip), vehicle: saline with Tween-80 91 % of control | dose: 400.0 mg/kg/injection, schedule: Q04DX002 (ip), vehicle: saline with Tween-80 100 % of control

COc1ccc(P(=S)(S)c2ccc(OC)cc2)cc1
inactive: dose: 100.0 mg/kg/injection, schedule: Q04DX003 (ip), vehicle: acetone 94 % of control | dose: 200.0 mg/kg/injection, schedule: Q04DX003 (ip), vehicle: acetone 100 % of control | dose: 400.0 mg/kg/injection, schedule: Q04DX003 (ip), vehicle: acetone 90 % of control

O=C(O)CSC(SCC(=O)O)c1ccccc1Cl
inactive: [8] 96 % of control | [9] 100 % of control | [10] 96 % of control

O=C1C2CCN(CC2)C1CNC1(c2ccccc2)CCCCC1 (centres undefined)
inactive: dose: 50.0 mg/kg/injection, schedule: Q01DX001 (ip), vehicle: Klucel (hydroxypropylcellulose) (HPC) 98 % of control | [11] 92 % of control | [12] 92 % of control

CCP1CCC(=NNC(N)=S)CC1 (centres undefined)
inactive: dose: 12.5 mg/kg/injection, schedule: Q04DX002 (ip), vehicle: saline with Tween-80 95 % of control | dose: 25.0 mg/kg/injection, schedule: Q04DX002 (ip), vehicle: saline with Tween-80 95 % of control | dose: 50.0 mg/kg/injection, schedule: Q04DX002 (ip), vehicle: saline with Tween-80 93 % of control

CCOC(=O)C(=Cc1ccccc1OC)C(=O)OCC
inactive: [11] 100 % of control | [9] 94 % of control | [12] 111 % of control | [10] 100 % of control | dose: 400.0 mg/kg/injection, schedule: Q01DX001 (ip), vehicle: Klucel (hydroxypropylcellulose) (HPC) 111 % of control | dose: 400.0 mg/kg/injection, schedule: Q04DX003 (ip), vehicle: Klucel (hydroxypropylcellulose) (HPC) 92 % of control
